Measurements: patent US20260365670A1, “EGFR INHIBITORS AND USES THEREOF” (DIZAL (JIANGSU) PHARMACEUTICAL CO., LTD., priority 2022, published 2026)
pIC50: −log10 of the molar value. Read-outs that look alike come from different tables or passages of the source.

Tests used:
EGFR L858R/T790M = target: T1, EGFR L858R/T790M (Homo sapiens, UniProt P00533, L858R/T790M); assay: Inhibition of EGFR L858R/T790M biochemical enzymatic activity (HTRF); conditions: EGFR L858R-T790M, 1 mM ATP, 1 h, room temperature, read-out: IC50 (nM) @L858R-T790M
T1 construct: purchased Carna Bio
Outline: (§1)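 Recombinant kinases phosphorylated 1 μM biotinylated TK substrate with 1 mM ATP in buffer with 5 mM MgCl2, 1 mM MnCl2, 0.01% CHAPS, 1 mM DTT, 0.5% DMSO. Reaction ran 1 h at room temperature, stopped with EDTA-containing detection mix. HTRF 665/615 nm ratio gave IC50 via four-parameter logistic fit.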

EGFR L858R = target: T2, EGFR L858R (Homo sapiens, UniProt P00533, L858R); assay: Inhibition of EGFR L858R biochemical enzymatic activity (HTRF); conditions: 1 mM ATP, 1 h, room temperature, read-out: IC50 (nM) @L858R
T2 construct: purchased Carna Bio
Outline: as §1

[1] = target: T3, EGFR[T790M/C797S/d746-750] (Homo sapiens, UniProt P00533, C797S/DEL746-750/T790M); assay: Inhibition of EGFR[T790M/C797S/d746-750] biochemical enzymatic activity (HTRF); conditions: EGFR T790M-C797S-Del19, 1 mM ATP, 1 h, room temperature, read-out: IC50 (nM) @T790M - C797S - Del19
T3 construct: purchased Carna Bio
Outline: as §1

EGFR wild type = target: T4, EGFR wild type (Homo sapiens, UniProt P00533); assay: Inhibition of EGFR wild type biochemical enzymatic activity (HTRF); conditions: EGFR WT, 1 mM ATP, 1 h, room temperature, read-out: IC50 (nM) @WT
T4 construct: purchased Carna Bio
Outline: as §1

[2] = tested on: Ba/F3 cells expressing EGFR mutations; assay: Cell proliferation assay, Ba/F3 cells expressing EGFR mutations (CellTiter-Glo, 72 hours); assay type: cell-based; conditions: CellTiter-Glo
Outline: (§2)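 Cells are exposed to graded compound concentrations after overnight plating, using 500 PC-9 or 5000 Ba/F3 per well. Baseline-subtracted viability is compared with vehicle to give percent proliferation, then GI50.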

PC-9 = assay: Cell proliferation assay, PC-9 cells (CellTiter-Glo, 72 hours); assay type: cell-based; conditions: PC9 cells, CellTiter-Glo, read-out: PC9 GI50
Outline: as §2

EGFR[T790M/C797S/L858R] = target: T5, EGFR[T790M/C797S/L858R] (Homo sapiens, UniProt P00533, C797S/L858R/T790M); assay: Inhibition of EGFR[T790M/C797S/L858R] biochemical enzymatic activity (HTRF); conditions: EGFR T790M-C797S-L858R, 1 mM ATP, 1 h, room temperature, read-out: IC50 (nM) @T790M- C797S - L858R
T5 construct: purchased Carna Bio
Outline: as §1

EGFR Exon19Del = target: T6, EGFR Exon19Del (Homo sapiens, UniProt P00533, DEL746-750); assay: Inhibition of EGFR Exon19Del biochemical enzymatic activity (HTRF); conditions: EGFR Del19, 1 mM ATP, 1 h, room temperature, read-out: IC50 @Del19
T6 construct: purchased Carna Bio
Outline: as §1

EGFR Exon19Del/T790M = target: T7, EGFR Exon19Del/T790M (Homo sapiens, UniProt P00533, DEL746-750/T790M); assay: Inhibition of EGFR Exon19Del/T790M biochemical enzymatic activity (HTRF); conditions: EGFR Del19-T790M, 1 mM ATP, 1 h, room temperature, read-out: IC50 (nM) @Del19-T790M
T7 construct: purchased Carna Bio
Outline: as §1

EGFR (d746-750 C797S) = target: T8, EGFR (d746-750 C797S) (Homo sapiens, UniProt P00533, C797S/DEL746-750); assay: Inhibition of EGFR (d746-750 C797S) biochemical enzymatic activity (HTRF); conditions: EGFR Del19-C797S, 1 mM ATP, 1 h, room temperature, read-out: IC50 (nM) @Del19-C797S
T8 construct: purchased signalchem
Outline: as §1

A-431 = assay: Cell proliferation GI50, A-431 cells (Table 6); assay type: cell-based
EGFR (C797S L858R) = target: T9, EGFR (C797S L858R) (Homo sapiens, UniProt P00533, C797S/L858R); assay: Inhibition of EGFR (C797S L858R) biochemical enzymatic activity (HTRF); conditions: EGFR L858-C797S, 1 mM ATP, 1 h, room temperature, read-out: IC50 (nM) @L858-C797S
T9 construct: purchased signalchem
Outline: as §1

[3] = Mus musculus, BaF3, 72 h, BaF3 cells, EGFR DEL19-C797S, read-out: DEL19-C797S/BaF3 GI50
[4] = Mus musculus, BaF3, 72 h, BaF3 cells, EGFR DEL19-T790-C797S, read-out: DEL19-T790-C797S/BaF3 GI50
[5] = Mus musculus, BaF3, 72 h, BaF3 cells, EGFR L858R, read-out: L858R/BaF3 GI50
[6] = Mus musculus, BaF3, 72 h, BaF3 cells, EGFR L858R-C797S, read-out: L858R-C797S/BaF3 GI50
[7] = Mus musculus, BaF3, 72 h, BaF3 cells, EGFR L858R-T790-C797S, read-out: L858R-T790-C797S/BaF3 GI50
[8] = Mus musculus, BaF3, 72 h, BaF3 cells, EGFR L858R-T790M, read-out: L858R-T790M/BaF3 GI50
[9] = Mus musculus, BaF3, 72 h, EGFR DEL19-T790M, read-out: DEL19-T790M GI50
[10] = Homo sapiens, A-431, A-431 cells
[11] = BaF3 cells, EGFR DEL19-C797S, read-out: DEL19-C797S/BaF3 GI50
[12] = BaF3 cells, EGFR DEL19-T790-C797S, read-out: DEL19-T790-C797S/BaF3 GI50
[13] = BaF3 cells, EGFR L858R, read-out: L858R/BaF3 GI50
[14] = BaF3 cells, EGFR L858R-C797S, read-out: L858R-C797S/BaF3 GI50
[15] = BaF3 cells, EGFR L858R-T790-C797S, read-out: L858R-T790-C797S/BaF3 GI50
[16] = BaF3 cells, EGFR L858R-T790M, read-out: L858R-T790M/BaF3 GI50
[17] = EGFR DEL19-T790M, read-out: DEL19-T790M GI50

T5 sequence (P00533 25-1210 T790M/C797S/L858R): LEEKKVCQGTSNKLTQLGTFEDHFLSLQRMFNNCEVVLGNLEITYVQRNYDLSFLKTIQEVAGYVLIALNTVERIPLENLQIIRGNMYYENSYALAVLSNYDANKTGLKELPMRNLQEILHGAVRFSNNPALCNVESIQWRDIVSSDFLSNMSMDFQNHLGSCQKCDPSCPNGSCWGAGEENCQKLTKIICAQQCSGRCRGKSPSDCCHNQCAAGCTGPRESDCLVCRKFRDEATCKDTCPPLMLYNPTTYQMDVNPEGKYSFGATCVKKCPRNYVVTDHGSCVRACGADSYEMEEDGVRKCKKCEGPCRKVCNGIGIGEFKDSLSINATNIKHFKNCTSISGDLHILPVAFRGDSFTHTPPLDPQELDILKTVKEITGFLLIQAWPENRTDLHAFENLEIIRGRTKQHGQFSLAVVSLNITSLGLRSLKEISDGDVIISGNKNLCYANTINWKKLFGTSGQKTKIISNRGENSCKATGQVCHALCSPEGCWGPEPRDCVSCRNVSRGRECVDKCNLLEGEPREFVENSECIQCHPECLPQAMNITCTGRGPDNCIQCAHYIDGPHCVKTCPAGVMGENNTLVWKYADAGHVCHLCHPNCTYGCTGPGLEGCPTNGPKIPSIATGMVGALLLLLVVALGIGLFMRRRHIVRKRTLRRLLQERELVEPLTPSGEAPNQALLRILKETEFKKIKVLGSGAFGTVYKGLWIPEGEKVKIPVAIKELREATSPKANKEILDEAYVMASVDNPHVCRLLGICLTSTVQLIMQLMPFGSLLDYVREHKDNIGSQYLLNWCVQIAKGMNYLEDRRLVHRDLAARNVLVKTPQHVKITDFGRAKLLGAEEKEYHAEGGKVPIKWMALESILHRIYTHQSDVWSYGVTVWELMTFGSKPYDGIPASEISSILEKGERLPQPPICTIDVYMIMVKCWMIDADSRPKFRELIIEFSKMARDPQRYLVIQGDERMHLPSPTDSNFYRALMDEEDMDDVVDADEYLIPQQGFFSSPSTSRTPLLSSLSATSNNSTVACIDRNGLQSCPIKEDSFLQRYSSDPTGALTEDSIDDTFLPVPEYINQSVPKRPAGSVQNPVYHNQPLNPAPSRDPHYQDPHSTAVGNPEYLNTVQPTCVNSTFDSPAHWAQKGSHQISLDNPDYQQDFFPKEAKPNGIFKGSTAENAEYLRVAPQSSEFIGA
T4 sequence (P00533 25-1210): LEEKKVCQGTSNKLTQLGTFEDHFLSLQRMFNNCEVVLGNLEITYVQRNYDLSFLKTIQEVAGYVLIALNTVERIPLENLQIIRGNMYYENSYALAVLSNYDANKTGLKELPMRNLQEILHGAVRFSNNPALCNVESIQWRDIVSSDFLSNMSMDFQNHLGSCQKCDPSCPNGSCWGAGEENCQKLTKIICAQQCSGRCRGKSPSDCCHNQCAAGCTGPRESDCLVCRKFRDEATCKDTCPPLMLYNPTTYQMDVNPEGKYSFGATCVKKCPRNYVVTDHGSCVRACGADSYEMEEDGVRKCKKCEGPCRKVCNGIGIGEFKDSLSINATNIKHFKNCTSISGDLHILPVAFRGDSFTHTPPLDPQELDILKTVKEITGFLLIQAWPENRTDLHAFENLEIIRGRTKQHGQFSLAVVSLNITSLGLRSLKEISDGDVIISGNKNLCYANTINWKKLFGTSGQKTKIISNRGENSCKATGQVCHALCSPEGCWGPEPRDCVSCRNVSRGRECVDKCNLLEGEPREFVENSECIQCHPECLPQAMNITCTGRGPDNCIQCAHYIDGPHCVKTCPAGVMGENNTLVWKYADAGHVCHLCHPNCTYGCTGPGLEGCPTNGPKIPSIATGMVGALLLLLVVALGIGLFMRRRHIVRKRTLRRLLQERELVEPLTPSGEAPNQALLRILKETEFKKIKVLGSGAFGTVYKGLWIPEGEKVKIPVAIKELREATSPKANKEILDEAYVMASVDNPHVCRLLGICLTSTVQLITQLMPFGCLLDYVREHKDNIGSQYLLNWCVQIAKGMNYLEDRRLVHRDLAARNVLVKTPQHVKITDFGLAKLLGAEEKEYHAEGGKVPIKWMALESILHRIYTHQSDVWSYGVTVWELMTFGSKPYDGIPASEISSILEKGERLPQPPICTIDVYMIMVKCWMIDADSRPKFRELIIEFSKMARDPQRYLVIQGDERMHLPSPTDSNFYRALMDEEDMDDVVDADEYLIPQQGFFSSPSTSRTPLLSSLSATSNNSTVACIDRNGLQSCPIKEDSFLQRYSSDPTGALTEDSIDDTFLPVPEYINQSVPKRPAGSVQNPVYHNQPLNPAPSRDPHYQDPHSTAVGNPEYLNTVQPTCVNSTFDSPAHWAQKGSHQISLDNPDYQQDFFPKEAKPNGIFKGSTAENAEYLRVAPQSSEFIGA
T2 sequence (P00533 25-1210 L858R): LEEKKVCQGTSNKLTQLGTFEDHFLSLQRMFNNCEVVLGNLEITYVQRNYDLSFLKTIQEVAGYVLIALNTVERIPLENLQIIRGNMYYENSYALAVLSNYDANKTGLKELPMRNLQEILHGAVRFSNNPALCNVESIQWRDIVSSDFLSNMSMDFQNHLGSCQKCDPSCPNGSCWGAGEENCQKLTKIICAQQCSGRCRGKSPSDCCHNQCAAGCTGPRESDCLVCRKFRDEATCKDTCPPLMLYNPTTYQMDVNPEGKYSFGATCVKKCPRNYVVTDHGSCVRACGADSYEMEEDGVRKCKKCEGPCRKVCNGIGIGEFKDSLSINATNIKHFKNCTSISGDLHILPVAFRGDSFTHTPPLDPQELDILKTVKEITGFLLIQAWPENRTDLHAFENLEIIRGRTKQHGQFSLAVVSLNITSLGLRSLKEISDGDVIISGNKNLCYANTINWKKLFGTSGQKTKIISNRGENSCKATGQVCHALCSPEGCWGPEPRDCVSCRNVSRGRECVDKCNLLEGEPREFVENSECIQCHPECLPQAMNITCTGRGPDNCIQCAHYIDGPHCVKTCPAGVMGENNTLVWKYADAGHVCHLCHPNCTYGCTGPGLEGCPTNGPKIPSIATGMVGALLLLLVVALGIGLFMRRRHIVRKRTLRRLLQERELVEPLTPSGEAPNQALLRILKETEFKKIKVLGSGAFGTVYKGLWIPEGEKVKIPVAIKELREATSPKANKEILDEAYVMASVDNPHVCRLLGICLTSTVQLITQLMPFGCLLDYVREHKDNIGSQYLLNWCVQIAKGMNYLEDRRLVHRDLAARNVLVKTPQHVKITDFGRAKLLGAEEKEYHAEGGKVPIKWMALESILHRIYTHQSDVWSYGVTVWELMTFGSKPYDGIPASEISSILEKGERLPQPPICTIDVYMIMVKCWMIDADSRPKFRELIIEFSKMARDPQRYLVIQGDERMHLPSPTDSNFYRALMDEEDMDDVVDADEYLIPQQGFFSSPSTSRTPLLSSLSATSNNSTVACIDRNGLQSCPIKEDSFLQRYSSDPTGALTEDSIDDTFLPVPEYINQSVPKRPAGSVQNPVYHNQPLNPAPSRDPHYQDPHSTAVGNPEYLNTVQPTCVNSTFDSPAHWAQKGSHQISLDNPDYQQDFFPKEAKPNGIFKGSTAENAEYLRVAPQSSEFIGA
T7 sequence (P00533 with tags, fused parts or gaps DEL746-750/T790M limits assumed): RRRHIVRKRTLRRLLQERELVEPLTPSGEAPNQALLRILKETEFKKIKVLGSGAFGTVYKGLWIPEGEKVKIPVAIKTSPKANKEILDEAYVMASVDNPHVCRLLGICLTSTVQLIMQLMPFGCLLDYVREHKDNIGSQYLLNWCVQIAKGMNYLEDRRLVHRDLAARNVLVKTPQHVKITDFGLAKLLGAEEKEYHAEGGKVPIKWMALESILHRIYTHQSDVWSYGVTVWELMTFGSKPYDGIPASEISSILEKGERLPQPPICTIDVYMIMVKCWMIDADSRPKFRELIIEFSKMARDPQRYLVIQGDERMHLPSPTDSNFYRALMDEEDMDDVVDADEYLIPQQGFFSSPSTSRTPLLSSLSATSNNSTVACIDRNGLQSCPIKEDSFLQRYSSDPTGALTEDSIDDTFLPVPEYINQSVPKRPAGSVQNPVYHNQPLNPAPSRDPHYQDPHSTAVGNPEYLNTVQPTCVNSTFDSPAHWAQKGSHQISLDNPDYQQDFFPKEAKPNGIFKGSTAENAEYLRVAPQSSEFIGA
T3 sequence (P00533 with tags, fused parts or gaps DEL746-750/T790M/C797S limits assumed): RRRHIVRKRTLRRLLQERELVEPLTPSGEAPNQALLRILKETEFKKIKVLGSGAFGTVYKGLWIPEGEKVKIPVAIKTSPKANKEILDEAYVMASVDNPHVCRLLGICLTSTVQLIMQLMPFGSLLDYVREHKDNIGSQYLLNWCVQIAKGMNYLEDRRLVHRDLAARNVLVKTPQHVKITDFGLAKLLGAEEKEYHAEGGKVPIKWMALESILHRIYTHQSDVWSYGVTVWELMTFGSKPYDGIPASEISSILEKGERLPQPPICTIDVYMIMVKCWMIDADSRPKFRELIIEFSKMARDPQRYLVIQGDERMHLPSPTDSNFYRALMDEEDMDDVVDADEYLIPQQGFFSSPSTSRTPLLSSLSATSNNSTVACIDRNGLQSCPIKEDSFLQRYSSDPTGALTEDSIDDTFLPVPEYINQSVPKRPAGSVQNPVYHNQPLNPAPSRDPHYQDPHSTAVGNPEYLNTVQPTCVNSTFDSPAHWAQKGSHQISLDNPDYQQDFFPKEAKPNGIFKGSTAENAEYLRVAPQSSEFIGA

Row | Structure (SMILES) | IC50 (EGFR L858R/T790M) [nM] | IC50 (EGFR L858R) [nM] | IC50 [1] [nM] | IC50 (EGFR wild type) [nM] | GI50 [2, 3] [nM] | GI50 [2, 4] [nM] | GI50 [2, 5] [nM] | GI50 [2, 6] [nM] | GI50 [2, 7] [nM] | GI50 [2, 8] [nM] | GI50 [2, 9] [nM] | GI50 (PC-9; Homo sapiens, PC-9, 72 h) [nM] | IC50 (EGFR[T790M/C797S/L858R]) [nM] | pIC50 (EGFR Exon19Del) | IC50 (EGFR Exon19Del/T790M) [nM] | IC50 (EGFR (d746-750 C797S)) [nM] | GI50 (A-431; [10]) [nM] | IC50 (EGFR (C797S L858R)) [nM] | GI50 [2, 11] [nM] | GI50 [2, 12] [nM] | further results
1 | CN1CCN(c2ccc3nc4n(c3c2)CCN(CC(F)(F)F)CCOc2c(cnn2C)-c2cc(cn(C)c2=O)C(=O)N4)CC1 [Example A3, 5,26-Dimethyl-16-(4-methylpiperazin-1-yl)-10-(2,2,2-trifluoroethyl)-7-oxa-4,5,10,13,20,22,26-heptaazapentacyclo[22.3.1.0^{2,6}.0^{13,21}.0^{14,19}]octacosa-1(28),2(6),3,14,16,18,20,24-octaene-23,27-dione] | 12 | 13 | 8.9 | 104 | 16 | 124 | 9.7 | 11 | 22 | 30 | 128 | 236 | 8.5 | 7.92 | 9.3 | 6.7 | 1290 | 10 | – | – | –
2 | CC(C)N1CCN(c2ccc3nc4n(c3c2)C[C@H](C)CCCOc2c(cnn2C)-c2cc(cn(C)c2=O)C(=O)N4)CC1 [Example A50] | 6.7 | 15 | 4 | 124 | 1 | 5.3 | 2.7 | 2.4 | 1.9 | 9.5 | 7.5 | 6.3 | 4.8 | 8.62 | 3.8 | 1.8 | 126 | 7.4 | – | – | –
3 | Cn1ncc2c1OCCN1CC3CCC(C3)(C1)n1c(nc3ccc(N4CCN(C5CC5)CC4)cc31)NC(=O)c1cc-2c(=O)n(C)c1 (single isomer, unassigned) [Example A83A] | > 5000 | 2020 | > 5000 | > 5000 | – | – | – | – | – | – | – | – | > 5000 | 6.37 | > 5000 | 577 | – | 2600 | 176 | 789 | GI50 [2, 13]: 993 nM; GI50 [2, 14]: 468 nM; GI50 [2, 15]: 1090 nM; GI50 [2, 16]: 1130 nM; GI50 [2, 17]: 585 nM; GI50 (PC-9): 766 nM; GI50 (A-431; A-431 cells): 7760 nM
4 | COCCN(C)c1ccc2nc3n(c2c1)C12CCC(CN(CCOc4c(cnn4C)-c4cc(cn(C)c4=O)C(=O)N3)C1)C2 (single isomer, unassigned) [Example A90A] | > 5000 | > 5000 | > 5000 | > 5000 | – | – | – | – | – | – | – | – | > 5000 | 5.77 | > 5000 | 749 | 4270 | > 5000 | 128 | 393 | GI50 [2, 13]: 540 nM; GI50 [2, 14]: 249 nM; GI50 [2, 15]: 721 nM; GI50 [2, 16]: 977 nM; GI50 [2, 17]: 321 nM; GI50 (PC-9): 2100 nM
5 | Cn1ncc2c1OCCN1CC3CCC(C3)(C1)n1c(nc3ccc(N4CCC(N5CC(F)C5)C4)cc31)NC(=O)c1cc-2c(=O)n(C)c1 (single isomer, unassigned) [Example A94A, 5-[3-(3-Fluoroazetidin-1-yl)pyrrolidin-1-yl]-15,21-dimethyl-23-oxa-2,9,11,15,20,21,26-heptaazaheptacyclo[24.4.1.1^{1,28}.1^{13,17}.0^{2,10}.0^{3,8}.0^{18,22}]tritriaconta-3,5,7,9,13,17(33),18(22),19-octaene-12,16-dione] | > 5000 | 4740 | > 5000 | > 5000 | – | – | – | – | – | – | – | – | > 5000 | 6.08 | > 5000 | 1560 | – | > 5000 | 114 | 254 | GI50 [2, 13]: 323 nM; GI50 [2, 14]: 284 nM; GI50 [2, 15]: 539 nM; GI50 [2, 16]: 944 nM; GI50 [2, 17]: 209 nM; GI50 (PC-9): 981 nM; GI50 (A-431; A-431 cells): 1660 nM
6 | Cn1ncc2c1OCCN1CCCC(C)(C1)n1c(nc3ccc(N4CCOCC4)cc31)NC(=O)c1cc-2c(=O)n(C)c1 (stereo not drawn) [Example A10, 1,15,21-trimethyl-5-(morpholin-4-yl)-23-oxa-2,9,11,15,20,21,26-heptaazahexacyclo[24.3.1.1^{13,17}.0^{2,10}.0^{3,8}.0^{18,22}]hentriaconta-3,5,7,9,13,17(31),18(22),19-octaene-12,16-dione] | 2630 | 2150 | 166 | > 5000 | 33 | 368 | 309 | 291 | 260 | 219 | 323 | 128 | 4400 | 6.72 | 164 | 173 | 5140 | 1950 | – | – | –
